Source: paper PMC9571594, “Development of Semisynthetic Apoptosis-Inducing Agents Based on Natural Phenolic Acids Scaffold: Design, Synthesis and In-Vitro Biological Evaluation” (Molecules, 2022)
Values joined by “and” are separate entries in the source; they are usually repeats but may differ in a detail not shown here. Equal values may be shown once. Read-outs that look alike come from different tables or passages of the source.

Key:
Format in all cases: cell-based
Caco-2 cancer cell line = test: MTT cell viability assay, Caco-2; details: 48 h; for IC50: MTT, average of triplicates, semi-synthesized compounds (Table 3), read-out: IC50 (μM) on Caco-2 cancer cell line
Method: MCF-7 cells (Human breast adenocarcinoma), HepG2 (human hepatocellular carcinoma), A549 (human lung adenocarcinoma), Caco-2 (colon carcinoma), PANC-1 (human pancreatic cancer), and Vero cells (derived from normal kidney cells) were supplied by (Holding Company for Biological Products and Vaccines VACSERA; Giza, Egypt). The cells were cultured in PRMI 1640 medium (Lonza, Switzerland) supplemented with 10% fetal bovine serum (Gibco), 1% penicillin and 1% streptomycin (Sigma Aldrich, Saint Louis, MO, USA) at 37 °C under an atmosphere of 5% CO2 and 95% air.
The effect of parent compounds and their derivatives were assessed by (3-(4,5-dimethylthiazol-2-yl)-2,5diphenyl-tetrazolium bromide) MTT assay. […] After a merged sheet of cells developed, the growth media was decanted from the 96-well microtiter and refilled with different concentrations of compounds (µg/mL), and the plate was incubated at 37 °C for 48 h to minimize exposure to the dissolving agent (Supporting Information).
MTT solution (BIO BASIC CANADA INC) was prepared [5 mg/mL in phosphate buffered saline (PBS)], added to each well and incubated for 4 h, then after removing the media, 200 μL of DMSO was added to each well to solubilize the formazan crystals and the optical density of the formazan product was measured at 560 nm using microplate reader (mindray, MR-96A). The results were calculated as the mean of the three independent experiments. […]
Determination of sample cytotoxicity on cells (MTT protocol) […]
well) and incubated at 37°C for 24 hours to develop a complete monolayer sheet.
2- Growth medium was decanted from 96 well micro titer plates after confluent sheet of cells were formed, cell monolayer was washed twice with wash media.
3- two-fold dilutions of tested sample was made in RPMI medium with 2% serum […]
4- 0.1 ml of each dilution was tested in different wells leaving 3 wells as control, receiving only maintenance medium.
5- Plate was incubated at 37°C and examined. Cells were checked for any physical signs of toxicity, e.g. partial or complete loss of the monolayer, rounding, shrinkage, […]
6- MTT solution was prepared (5mg/ml in PBS) (BIO BASIC CANADA INC).
8- 20ul MTT solution were added to each well. Place on a shaking table, 150rpm for 5 minutes, to thoroughly mix the MTT into the media.
10) Dump off the media. (dry plate on paper towels to remove residue if necessary. […] 9 ش - ايلعلا هبضهلا - مطقملا / ىسيئرلا لمعملا […]

Caco-2 cells [1] = test: Cell-cycle analysis by flow cytometry; details: for %G0–G1 / %G2/M / %S / %Pre-G1: Caco-2 cells; for %G0–G1 / %G2/M / %S: cell-cycle distribution after treatment; for %Pre-G1: Pre-G1 = apoptotic population
Method: The potential candidates with anti-tumor effect on the Caco-2 cell line along with a high SI were chosen for cell-cycle analysis. The cell-cycle distribution and cell death were analyzed using Annexin V-FITC/PI staining and flow cytometry (Table 4, Figure 4).
In order to determine the percentage of viable, apoptotic and necrotic cells after treatment with our compounds, double-staining with fluorescein isothiocyanate (FITC) and PI was performed. Annexin V-FITC Apoptosis Detection Kit (BioVision, CA, USA) was used. Briefly, cultured Caco-2 were treated with the tested compounds or DMSO for 24h. Cells were then collected by centrifugation at 2000 rpm for 5 min, and the pellet was washed with PBS then centrifuged again at 2000 rpm for 5 min then resuspended in 500μL of the kit’s binding buffer before adding the Annexin V-FITC and PI. The cells were then incubated at room temperature in the dark for 5 min. […]
Assay : Cell Cycle Analysis
Kit used : ab139418_Propidium Iodide Flow Cytometry Kit/BD
Assay samples :Cell culture
(§1) Cpd. No. Cpd. No. Cpd. No. Cpd. No.

Caco-2 cells [2] = test: Annexin V-FITC/PI apoptosis assay by flow cytometry; design: key: % of cells; details: annexin-V FITC/PI staining, 24h
Method: In order to determine the percentage of viable, apoptotic and necrotic cells after treatment with our compounds, double-staining with fluorescein isothiocyanate (FITC) and PI was performed. Annexin V-FITC Apoptosis Detection Kit (BioVision, CA, USA) was used. Briefly, cultured Caco-2 were treated with the tested compounds or DMSO for 24h. Cells were then collected by centrifugation at 2000 rpm for 5 min, and the pellet was washed with PBS then centrifuged again at 2000 rpm for 5 min then resuspended in 500μL of the kit’s binding buffer before adding the Annexin V-FITC and PI. The cells were then incubated at room temperature in the dark for 5 min. Annexin V-FITC binding was measured using FACS Calibur flow cytometer (BD biosciences, USA) (Ex = 488 nm, Em = 533 nm, FL1 filter for annexin and FL2 filter for PI).

MMP-9 = test: RT-qPCR gene expression of MMP-9; details: for MMP9 Fold Change: Caco2, relative to cont.Caco2 = 1
Method: (§2) The treated cells were harvested and the total RNA was extracted using RNeasy Mini Kit (Qiagen) according to the manufacturer’s instruction. The primers of the required genes (Table 6) were used for SYBR Green qRT-PCR using a one-step RT-PCR kit with SYBR Green (Bio-Rad). qRT-PCR was performed on Rotor Gene Q (Qiagen). […] Rotor-Gene 6000 Series Software was used for data analysis. and their HGNC ID was added (Table 6)
(§3) Researcher : Dr/Noura email: mob.
(§4) Reader : Rotorgene RT- PCR system
(§5) Kit used : Qiagen RNA extraction/BioRad syber green PCR MMX
(§6) Assay samples :Cell culture Lysate
as §1

MMP-2 = test: RT-qPCR gene expression of MMP-2; details: for MMP2 Fold Change: Caco2, relative to cont.Caco2 = 1
Method: as §2, §3, §4, §5, §6, §1

IC50 (Caco-2 cancer cell line; Homo sapiens, Caco-2) [µM] | Compound | %G0–G1 (Caco-2 cells [1]) [%] | %G2/M (Caco-2 cells [1]) [%] | %S (Caco-2 cells [1]) [%] | %Pre-G1 (Caco-2 cells [1]) | Apoptosis Total (Caco-2 cells [2]) | Early Apoptosis (Caco-2 cells [2]) | Necrosis (Caco-2 cells [2]) | also measured
10 | Nc1ccccc1NC(=O)/C=C/c1ccc(O)c(O)c1 [Compound 11, (E)-N-(2-Aminophenyl)-3-(3,4-dihydroxyphenyl)acrylamide] | 41.09 ± 2.76 | 25.55 ± 2.47 | 33.36 ± 2.73 | 14.04% and 14.04 ± 0.95% | 14.04 | 2.47 | 2.07 | %G0–G1 (Caco-2 cells [1]; listed as CA12): 41.09%; %G2/M (Caco-2 cells [1]; listed as CA12): 25.55%; %S (Caco-2 cells [1]; listed as CA12): 33.36%; Late Apoptosis (Caco-2 cells [2]; listed as CA12): 9.5; MMP9 Fold Change (MMP-9): 0.30±0.006 Fold Change; MMP2 Fold Change (MMP-2): 0.54±0.014 Fold Change
40 | COc1ccc(/C=C/C(=O)N2CCN(c3ccccc3)CC2)cc1O [Compound 12, (E)-3-(3-Hydroxy-4-methoxyphenyl)-1-(4-phenylpiperazin-1-yl)prop-2-en-1-one] |  |  |  |  |  |  |  | 
80 | COc1ccc(NC(=O)/C=C/c2ccc(OC)c(O)c2)cc1 [Compound 13, (E)-3-(3-Hydroxy-4-methoxyphenyl)-N-(4-methoxyphenyl)acrylamide] |  |  |  |  |  |  |  | 
80 | COc1ccc(NC(=O)/C=C/c2ccc(O)c(OC)c2)cc1 [Compound 16, (E)-3-(4-Hydroxy-3-methoxyphenyl)-N-(4-methoxyphenyl)acrylamide] |  |  |  |  |  |  |  | 

More lines, now with the values behind:

Compound | IC50 (Caco-2 cancer cell line; Homo sapiens, Caco-2) [µM] | %G0–G1 (Caco-2 cells [1]) [%] | %G2/M (Caco-2 cells [1]) [%] | %S (Caco-2 cells [1]) [%] | %Pre-G1 (Caco-2 cells [1]) | Apoptosis Total (Caco-2 cells [2]) | Early Apoptosis (Caco-2 cells [2]) | Necrosis (Caco-2 cells [2]) | also measured
O=C(/C=C/c1ccc(O)c(O)c1)N1CCN(c2ccccc2)CC1 [Compound 3, (E)-3-(3,4-Dihydroxyphenyl)-1-(4-phenylpiperazin-1-yl)prop-2-en-1-one] | 80 |  |  |  |  |  |  |  | 
O=C(/C=C/c1ccc(O)c(O)c1)Nc1ccc(O)cc1 [Compound 4, (E)-3-(3,4-Dihydroxyphenyl)-N-(4-hydroxyphenyl)acrylamide] | 70 |  |  |  |  |  |  |  | 
Cc1ccc(NC(=O)/C=C/c2ccc(O)c(O)c2)cc1 [Compound 5, (E)-3-(3,4-Dihydroxyphenyl)-N-(p-tolyl)acrylamide] | 60 | 41.52 ± 2.61 | 26.86 ± 2.75 | 31.62 ± 1.79 | 7.56 ± 0.39% | 7.56 | 2.59 | 1.04 | %G0–G1 (Caco-2 cells [1]; listed as CA3): 41.52%; %G2/M (Caco-2 cells [1]; listed as CA3): 26.86%; %S (Caco-2 cells [1]; listed as CA3): 31.62%; %Pre-G1 (Caco-2 cells [1]; listed as CA3): 7.56%; Late Apoptosis (Caco-2 cells [2]): 3.93
O=C(/C=C/c1ccc(O)c(O)c1)NC1CCCCC1 [Compound 6, (E)-N-Cyclohexyl-3-(3,4-dihydroxyphenyl)acrylamide] | 50 |  |  |  |  |  |  |  | 
O=C(/C=C/c1ccc(O)c(O)c1)Nc1ccc(Br)cc1 [Compound 7, (E)-N-(4-Bromophenyl)-3-(3,4-dihydroxyphenyl)acrylamide] | 20 | 28.68 ± 1.64 | 44.91 ± 3.42 | 26.41 ± 2.15 | 18.26% and 18.26 ± 1.42% | 18.26 | 4.75 | 2.14 | %G0–G1 (Caco-2 cells [1]; listed as CA6): 28.68%; %G2/M (Caco-2 cells [1]; listed as CA6): 44.91%; %S (Caco-2 cells [1]; listed as CA6): 26.41%; MMP9 Fold Change (MMP-9): 0.29±0.006 Fold Change; expression of MMP9 (in words) (MMP-9; Figures 8 and 9): greatest inhibition; MMP2 Fold Change (MMP-2): 0.16±0.004 Fold Change; expression of MMP2 (in words) (MMP-2; Figures 8 and 9): greatest inhibition
COc1ccc(NC(=O)/C=C/c2ccc(O)c(O)c2)cc1 [Compound 8, (E)-N-(4-Methoxyphenyl)-3-(3,4-dihydroxyphenyl)acrylamide] | 80 |  |  |  |  |  |  |  | 
O=C(/C=C/c1ccc(O)c(O)c1)NCc1ccccc1 [Compound 9, (E)-N-Benzyl-3-(3,4-dihydroxyphenyl)acrylamide] | 30 | 38.51 ± 1.95 | 30.05 ± 2.59 | 31.44 ± 2.87 | 9.62 ± 0.37% | 9.62 | 3.72 | 1.36 | %G0–G1 (Caco-2 cells [1]; listed as CA9): 38.51%; %G2/M (Caco-2 cells [1]; listed as CA9): 30.05%; %S (Caco-2 cells [1]; listed as CA9): 31.44%; %Pre-G1 (Caco-2 cells [1]; listed as CA9): 9.62%; Late Apoptosis (Caco-2 cells [2]): 4.54
O=C(/C=C/c1ccc(O)c(O)c1)Nc1ccc(Cl)cc1 [Compound 10, (E)-N-(4-Chlorophenyl)-3-(3,4-dihydroxyphenyl)acrylamide] | 9 | 29.75 ± 1.73 | 41.98 ± 2.18 | 28.27 ± 1.99 | 23.42% and 23.42 ± 2.12% | 23.42 | 7.59 | 3.14 | %G0–G1 (Caco-2 cells [1]; listed as CA11): 29.75%; %G2/M (Caco-2 cells [1]; listed as CA11): 41.98%; %S (Caco-2 cells [1]; listed as CA11): 28.27%
COc1ccc(/C=C/C(=O)Nc2ccccc2N)cc1O [Compound 20, (E)-N-(2-Aminophenyl)-3-(3-hydroxy-4-methoxyphenyl)acrylamide] |  | 39.12 ± 2.58 | 26.84 ± 2.34 | 34.04 ± 2.69 | 8.62 ± 0.69% | 8.62 | 2.19 | 1.24 | apoptotic population compared to the parent compound (Caco-2 cells [1]; Caco-2, in words, versus parent 1 or 2): non-significant decrease; %G0–G1 (Caco-2 cells [1]; listed as FA12): 39.12%; %G2/M (Caco-2 cells [1]; listed as FA12): 26.84%; %S (Caco-2 cells [1]; listed as FA12): 34.04%; %Pre-G1 (Caco-2 cells [1]; listed as FA12): 8.62%; Late Apoptosis (Caco-2 cells [2]): 5.19; MMP9 Fold Change (MMP-9): 0.45±0.009 Fold Change; MMP2 Fold Change (MMP-2): 0.68±0.018 Fold Change
COc1cccc2c1C(=O)c1c(O)c3c(c(O)c1C2=O)C[C@@](O)(C(=O)CO)C[C@@H]3O[C@H]1C[C@H](N)[C@H](O)[C@H](C)O1 [Doxorubicin] |  |  |  |  |  |  |  |  | IC50 (μM) ± SD Caco-2 (Caco-2 cancer cell line): 0.17 ± 1.1 µM
(E)-3-(3-Hydroxy-4-methoxyphenyl)-N-(p-tolyl)acrylamide [Compound 14] |  |  |  |  | 16.51% and 16.51 ± 0.63% | 16.51 | 3.99 | 2.26 | IC50 (Caco-2 cancer cell line): 50 µM
